# Patent publication US8497083B2, “Fructosyl amino acid oxidase” (priority 2009, dated 2013)
# Target: T1, fructosyl amino acid oxidase from Pichia sp. N1-1 (N1-1 FAOD), wild type, SEQ ID NO: 2 (Pichia sp. N1-1, UniProt Q3L8U0)
# T1 construct: 427 aa
# T1 sequence (Q3L8U0 1-427): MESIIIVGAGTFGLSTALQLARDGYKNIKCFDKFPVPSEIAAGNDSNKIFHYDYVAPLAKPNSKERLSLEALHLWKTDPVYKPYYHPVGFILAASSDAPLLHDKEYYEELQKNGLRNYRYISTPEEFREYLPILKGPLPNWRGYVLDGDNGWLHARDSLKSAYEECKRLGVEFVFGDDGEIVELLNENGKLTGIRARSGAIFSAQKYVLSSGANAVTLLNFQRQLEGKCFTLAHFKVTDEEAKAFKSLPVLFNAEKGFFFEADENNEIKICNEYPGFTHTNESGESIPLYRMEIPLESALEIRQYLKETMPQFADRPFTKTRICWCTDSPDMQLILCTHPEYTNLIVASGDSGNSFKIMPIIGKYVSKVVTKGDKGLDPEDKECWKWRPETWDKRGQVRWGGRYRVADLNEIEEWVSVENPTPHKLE
# Experiment: Dehydrogenase activity kinetics (mPMS/DCIP), N1-1 FAOD wild type
# Assay type: biochemical
# Conditions: mPMS/DCIP over 4AA/TODB/POD
# Source text: As used herein, “dehydrogenase activity” is an enzymatic activity (Vmax) of the fructosyl amino acid oxidase to catalyze oxidation of fructosyl amino acid to generate 2-keto-D-glucose and the corresponding amino acid while utilizing an electron mediator other than oxygen as an electron acceptor. The dehydrogenase activity may be assayed by measuring the amount of electrons transferred to the mediator using, for example, one of mPMS/DCIP (1-methoxy-5-methylphenazinium methylsulfate/2,6-dichloroindophenol), cPES (trifluoro-acetate-1-(3-carboxy-propoxy)-5-ethyl-phenanzinium, NA BM31—1144 (N,N-bis-(hydroxyethyl)-3-methoxynitrosoaniline hydrochloride, NA BM31—1008 (N,N-bis-hydroxyethyl-4-nitrosoaniline) and N—N-4-dimethyl-nitrosoaniline.
# As used herein in the context of the relative or quantitative activity, the dehydrogenase activity is specifically defined to be the mole amount of the substrate (fructosyl amino acid) oxidized per unit time measured by the amount of electrons transferred to the mediator at 25° C. in 10 mM PPB (pH 7.0), 0.6 mM DCIP, and 6 mM methoxy PMS (mPMS).
# Escherichia coli BL21 (DE3) cells harboring expression vectors of N1-1 FAOD (SEQ ID NO: 2) mutants were grown in 150 ml of LB medium containing 50 μg/ml kanamycin at 37° C. […] The formation of quinoneimine dye was measured spectrophotometrically at 546 nm. […]
compound,measurement,setting,value
"CC(C)[C@H](NCC1(O)OC[C@@H](O)[C@@H](O)[C@@H]1O)C(=O)O (some centres unmarked) [f-αVal, fructosyl valine]",B/A (Vmax dehydrogenase/Vmax oxidase),crude preparation,1.2
same,B/A (Vmax dehydrogenase/Vmax oxidase),purified enzyme,1.1
